Assay results taken from ChEMBL document CHEMBL4507259 (2021).

Legend:
[1] = molecular target: Adenosine receptor A2b (Homo sapiens) (UniProt P29275); assay: A2B (h) CEREP ligand profiling; settings: filed as antagonist, Compound concentration 10.0 uM
[2] = molecular target: Prostaglandin G/H synthase 1 (Homo sapiens) (UniProt P23219); assay: COX1(h) CEREP ligand profiling; settings: Compound concentration 10.0 uM
[3] = molecular target: Activin receptor type-1 (Homo sapiens) (UniProt Q04771); settings: Compound concentration 1000.0 nM
[4] = molecular target: Ephrin type-A receptor 8 (Homo sapiens) (UniProt P29322); settings: Compound concentration 1000.0 nM
[5] = molecular target: Tyrosine-protein kinase JAK1 (Homo sapiens) (UniProt P23458); settings: Compound concentration 1000.0 nM
[6] = molecular target: Dual specificity mitogen-activated protein kinase kinase 1 (Homo sapiens) (UniProt Q02750); settings: Compound concentration 1000.0 nM
Sequence of Dual specificity mitogen-activated protein kinase kinase 1 (Homo sapiens) (Q02750 whole entry): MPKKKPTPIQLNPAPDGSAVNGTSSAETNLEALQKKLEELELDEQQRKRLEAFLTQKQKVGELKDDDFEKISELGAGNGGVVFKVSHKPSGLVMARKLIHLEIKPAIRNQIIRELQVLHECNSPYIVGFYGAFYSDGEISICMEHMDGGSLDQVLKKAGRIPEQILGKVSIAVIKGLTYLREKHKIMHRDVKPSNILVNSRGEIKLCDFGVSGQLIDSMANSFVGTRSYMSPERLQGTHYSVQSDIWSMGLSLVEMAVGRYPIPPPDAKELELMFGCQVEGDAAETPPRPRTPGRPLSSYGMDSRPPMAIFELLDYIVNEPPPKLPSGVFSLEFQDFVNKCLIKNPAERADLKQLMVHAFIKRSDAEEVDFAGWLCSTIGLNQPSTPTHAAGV

[7] = molecular target: Serine/threonine-protein kinase N1 (Homo sapiens) (UniProt Q16512); settings: Compound concentration 1000.0 nM
Sequence of Serine/threonine-protein kinase N1 (Homo sapiens) (Q16512 2-942 limits assumed): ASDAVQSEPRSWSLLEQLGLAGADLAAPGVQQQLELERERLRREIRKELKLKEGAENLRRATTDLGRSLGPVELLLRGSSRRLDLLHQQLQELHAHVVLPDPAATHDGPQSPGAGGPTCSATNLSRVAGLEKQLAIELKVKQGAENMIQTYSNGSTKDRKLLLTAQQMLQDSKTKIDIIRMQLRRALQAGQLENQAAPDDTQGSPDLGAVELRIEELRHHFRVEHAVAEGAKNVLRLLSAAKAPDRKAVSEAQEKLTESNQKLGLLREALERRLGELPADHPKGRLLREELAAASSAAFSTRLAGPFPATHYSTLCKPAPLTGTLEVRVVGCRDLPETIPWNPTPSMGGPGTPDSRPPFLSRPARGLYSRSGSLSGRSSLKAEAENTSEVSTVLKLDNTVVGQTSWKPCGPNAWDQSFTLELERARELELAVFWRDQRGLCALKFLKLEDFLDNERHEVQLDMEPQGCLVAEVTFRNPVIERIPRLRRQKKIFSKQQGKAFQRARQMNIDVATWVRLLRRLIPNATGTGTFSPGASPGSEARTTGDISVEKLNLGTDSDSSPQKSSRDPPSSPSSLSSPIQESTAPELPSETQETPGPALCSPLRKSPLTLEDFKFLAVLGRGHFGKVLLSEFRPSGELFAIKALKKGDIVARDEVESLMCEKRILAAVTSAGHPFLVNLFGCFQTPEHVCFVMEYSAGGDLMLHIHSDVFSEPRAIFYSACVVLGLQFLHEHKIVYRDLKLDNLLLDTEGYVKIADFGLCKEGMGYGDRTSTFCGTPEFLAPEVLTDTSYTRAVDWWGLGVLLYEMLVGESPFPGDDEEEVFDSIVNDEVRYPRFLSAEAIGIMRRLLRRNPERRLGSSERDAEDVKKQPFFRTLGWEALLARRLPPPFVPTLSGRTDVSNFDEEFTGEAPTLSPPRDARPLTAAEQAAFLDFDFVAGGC

[8] = molecular target: Translocator protein (Rattus norvegicus) (UniProt P16257); assay: BZD (peripheral) CEREP ligand profiling; settings: filed as antagonist; Compound concentration 10.0 uM
Sequence of Translocator protein (Rattus norvegicus) (P16257 whole entry, looked up): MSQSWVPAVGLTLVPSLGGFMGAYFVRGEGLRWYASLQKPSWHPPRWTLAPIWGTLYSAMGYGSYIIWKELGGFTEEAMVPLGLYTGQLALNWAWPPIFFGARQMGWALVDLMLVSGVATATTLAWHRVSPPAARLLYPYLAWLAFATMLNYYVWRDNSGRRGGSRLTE

[9] = molecular target: Adenosine receptor A3 (Homo sapiens) (UniProt P0DMS8); assay: A3 (h) CEREP ligand profiling; settings: filed as agonist, Compound concentration 10.0 uM
Sequence of Adenosine receptor A3 (Homo sapiens) (P0DMS8 whole entry): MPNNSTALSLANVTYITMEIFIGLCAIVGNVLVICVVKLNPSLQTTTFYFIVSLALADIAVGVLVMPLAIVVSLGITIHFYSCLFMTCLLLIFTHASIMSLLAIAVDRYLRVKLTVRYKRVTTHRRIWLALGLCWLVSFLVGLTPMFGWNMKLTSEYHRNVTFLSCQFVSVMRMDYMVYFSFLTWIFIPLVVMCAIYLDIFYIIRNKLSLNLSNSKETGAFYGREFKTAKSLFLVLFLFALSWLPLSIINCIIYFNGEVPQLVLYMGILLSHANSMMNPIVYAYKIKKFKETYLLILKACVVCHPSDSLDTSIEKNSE

[10] = molecular target: Adenosine receptor A1 (Homo sapiens) (UniProt P30542); assay: A1 (h) CEREP ligand profiling; settings: filed as antagonist, Compound concentration 10.0 uM
Sequence of Adenosine receptor A1 (Homo sapiens) (P30542 whole entry): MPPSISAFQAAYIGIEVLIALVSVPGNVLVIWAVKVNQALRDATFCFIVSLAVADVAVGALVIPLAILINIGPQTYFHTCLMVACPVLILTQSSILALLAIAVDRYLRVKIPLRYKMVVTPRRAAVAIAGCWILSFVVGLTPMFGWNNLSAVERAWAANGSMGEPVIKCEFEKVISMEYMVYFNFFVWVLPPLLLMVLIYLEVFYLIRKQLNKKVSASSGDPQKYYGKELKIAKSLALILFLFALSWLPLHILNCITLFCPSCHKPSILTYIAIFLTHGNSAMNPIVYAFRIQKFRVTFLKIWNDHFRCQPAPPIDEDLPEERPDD

[11] = molecular target: Prostaglandin G/H synthase 2 (Homo sapiens) (UniProt P35354); assay: COX2(h) CEREP ligand profiling; settings: Compound concentration 10.0 uM
[12] = molecular target: Histone acetyltransferase KAT2B (Homo sapiens) (UniProt Q92831); assay: PCAF (HAT) CEREP ligand profiling; settings: Compound concentration 10.0 uM
Sequence of Histone acetyltransferase KAT2B (Homo sapiens) (Q92831 whole entry, looked up): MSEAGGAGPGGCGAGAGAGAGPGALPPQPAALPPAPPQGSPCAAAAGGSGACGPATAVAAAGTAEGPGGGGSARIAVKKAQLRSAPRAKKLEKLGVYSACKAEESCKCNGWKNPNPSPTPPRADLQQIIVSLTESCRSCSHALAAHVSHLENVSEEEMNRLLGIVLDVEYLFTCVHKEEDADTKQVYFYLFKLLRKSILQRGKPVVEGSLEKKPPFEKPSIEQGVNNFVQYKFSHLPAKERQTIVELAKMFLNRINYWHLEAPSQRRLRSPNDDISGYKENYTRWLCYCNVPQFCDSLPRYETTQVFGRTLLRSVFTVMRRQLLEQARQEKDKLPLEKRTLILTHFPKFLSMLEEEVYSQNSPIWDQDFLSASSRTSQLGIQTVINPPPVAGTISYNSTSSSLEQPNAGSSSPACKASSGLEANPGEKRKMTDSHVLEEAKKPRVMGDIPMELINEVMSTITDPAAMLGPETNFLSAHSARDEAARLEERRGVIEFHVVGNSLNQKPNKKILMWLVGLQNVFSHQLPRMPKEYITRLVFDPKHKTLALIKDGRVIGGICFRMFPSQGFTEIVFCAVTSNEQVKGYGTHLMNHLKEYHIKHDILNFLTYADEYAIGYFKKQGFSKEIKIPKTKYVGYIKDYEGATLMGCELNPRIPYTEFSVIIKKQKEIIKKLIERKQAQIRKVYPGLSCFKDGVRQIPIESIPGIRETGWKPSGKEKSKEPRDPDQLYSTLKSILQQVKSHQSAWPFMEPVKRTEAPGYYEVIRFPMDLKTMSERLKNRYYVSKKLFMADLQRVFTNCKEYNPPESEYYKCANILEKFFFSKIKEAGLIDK

[13] = molecular target: Histone acetyltransferase KAT5 (Homo sapiens) (UniProt Q92993); assay: TIP60 (HAT) CEREP ligand profiling; settings: Compound concentration 10.0 uM
Sequence of Histone acetyltransferase KAT5 (Homo sapiens) (Q92993 whole entry, looked up): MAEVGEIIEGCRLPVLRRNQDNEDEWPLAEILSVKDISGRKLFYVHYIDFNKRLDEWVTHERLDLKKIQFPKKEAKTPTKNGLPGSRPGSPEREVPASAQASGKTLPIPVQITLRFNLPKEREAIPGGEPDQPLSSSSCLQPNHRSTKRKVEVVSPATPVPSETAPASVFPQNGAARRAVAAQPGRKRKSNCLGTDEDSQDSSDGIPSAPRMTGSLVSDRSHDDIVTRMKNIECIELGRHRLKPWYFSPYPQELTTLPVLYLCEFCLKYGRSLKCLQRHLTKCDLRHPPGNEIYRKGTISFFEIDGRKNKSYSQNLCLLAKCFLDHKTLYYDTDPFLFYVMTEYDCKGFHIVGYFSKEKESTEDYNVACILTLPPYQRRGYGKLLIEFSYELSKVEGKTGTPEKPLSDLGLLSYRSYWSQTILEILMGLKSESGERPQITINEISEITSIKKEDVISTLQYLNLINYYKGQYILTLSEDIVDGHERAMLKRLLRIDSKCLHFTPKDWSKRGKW

NCI-H23 = assay: H23 cell line Proliferation assay; format: functional, Homo sapiens; settings: Compound concentration 10 uM; time 3 day
NCI-H1373 = assay: H1373 cell line Proliferation assay; format: functional, Homo sapiens; settings: Compound concentration 10 uM; time 3 day
NCI-H1693 = assay: H1693 cell line Proliferation assay; format: functional, Homo sapiens; settings: Compound concentration 10 uM; time 3 day
NCI-H727 = assay: H727 cell line Proliferation assay; format: functional, Homo sapiens; settings: Compound concentration 10 uM; time 3 day
NCI-H441 = assay: H441 cell line Proliferation assay; format: functional, Homo sapiens; settings: Compound concentration 10 uM; time 3 day
NCI-H596 = assay: H596 cell line Proliferation assay; format: functional, Homo sapiens; settings: Compound concentration 10 uM; time 3 day
DU-145 = assay: DU-145 cell line Proliferation assay; format: functional, Homo sapiens; settings: Compound concentration 10 uM; time 5 day
SK-MEL-1 = assay: SKMEL1 cell line Proliferation assay; format: functional, Homo sapiens; settings: Compound concentration 10 uM; time 5 day
WM 266-4 = assay: WM2664 cell line Proliferation assay; format: functional, Homo sapiens; settings: Compound concentration 10 uM; time 5 day
COLO-679 = assay: Colo679 cell line Proliferation assay; format: functional, Homo sapiens; settings: Compound concentration 10 uM; time 5 day
Hs 294T = assay: Hs294T cell line Proliferation assay; format: functional, Homo sapiens; settings: Compound concentration 10 uM; time 5 day
NCI-H209 = assay: H209 cell line Proliferation assay; format: functional, Homo sapiens; settings: Compound concentration 10 uM; time 4 day
NCI-H1930 = assay: H1930 cell line Proliferation assay; format: functional, Homo sapiens; settings: Compound concentration 10 uM; time 4 day
NCI-H2081 = assay: H2081 cell line Proliferation assay; format: functional, Homo sapiens; settings: Compound concentration 10 uM; time 4 day
COR-L47 = assay: Cor-L47 cell line Proliferation assay; format: functional, Homo sapiens; settings: Compound concentration 10 uM; time 4 day
BT-20 = assay: BT-20 cell line Proliferation assay; format: functional, Homo sapiens; settings: Compound concentration 10 uM; time 5 day
HCC1806 = assay: HCC1806 cell line Proliferation assay; format: functional, Homo sapiens; settings: Compound concentration 10 uM; time 5 day
MDA-MB-157 = assay: MDA_MB_157 cell line Proliferation assay; format: functional, Homo sapiens; settings: Compound concentration 10 uM; time 5 day
HCC1937 = assay: HCC1937 cell line Proliferation assay; format: functional, Homo sapiens; settings: Compound concentration 10 uM; time 5 day
HCC1395 = assay: HCC1395 cell line Proliferation assay; format: functional, Homo sapiens; settings: Compound concentration 10 uM; time 5 day
MDA-MB-231 = assay: MDA_MB_231 cell line Proliferation assay; format: functional, Homo sapiens; settings: Compound concentration 10 uM; time 5 day
4T1 = assay: 4T1 (mouse) cell line Proliferation assay; format: functional; settings: Compound concentration 10 uM; time 5 day
HCC1187 = assay: HCC1187 cell line Proliferation assay; format: functional, Homo sapiens; settings: Compound concentration 10 uM; time 5 day
RPMI-8226 = assay: RPMI-8226 cell line Proliferation assay; format: functional, Homo sapiens; settings: Compound concentration 10 uM; time 3 day
MM1.S = assay: MM1.s cell line Proliferation assay; format: functional, Homo sapiens; settings: Compound concentration 10 uM; time 3 day
L-363 = assay: L-363 cell line Proliferation assay; format: functional, Homo sapiens; settings: Compound concentration 10 uM; time 3 day
OPM-2 = assay: OPM-2 cell line Proliferation assay; format: functional, Homo sapiens; settings: Compound concentration 10 uM; time 3 day
AMO1 = assay: AMO-1 cell line Proliferation assay; format: functional, Homo sapiens; settings: Compound concentration 10 uM; time 3 day
Karpas-1106P = assay: K1106 cell line Proliferation assay; format: functional, Homo sapiens; settings: Compound concentration 10 uM; time 3 day
Daudi = assay: Daudi cell line Proliferation assay; format: functional, Homo sapiens; settings: Compound concentration 10 uM; time 3 day
NU-DUL-1 = assay: NuDUL1 cell line Proliferation assay; format: functional, Homo sapiens; settings: Compound concentration 10 uM; time 3 day
Toledo = assay: Toledo cell line Proliferation assay; format: functional, Homo sapiens; settings: Compound concentration 10 uM; time 3 day
NU-DHL-1 = assay: NuDHL1 cell line Proliferation assay; format: functional, Homo sapiens; settings: Compound concentration 10 uM; time 3 day
Mino = assay: Mino cell line Proliferation assay; format: functional, Homo sapiens; settings: Compound concentration 10 uM; time 3 day
U-2973 = assay: U2973 cell line Proliferation assay; format: functional, Homo sapiens; settings: Compound concentration 10 uM; time 3 day
DB = assay: DB cell line Proliferation assay; format: functional, Homo sapiens; settings: Compound concentration 10 uM; time 3 day
RL = assay: RL cell line Proliferation assay; format: functional, Homo sapiens; settings: Compound concentration 10 uM; time 3 day
GA-10 = assay: GA10 cell line Proliferation assay; format: functional, Homo sapiens; settings: Compound concentration 10 uM; time 3 day
Rec1 = assay: REC1 cell line Proliferation assay; format: functional, Homo sapiens; settings: Compound concentration 10 uM; time 3 day
Farage = assay: Farage cell line Proliferation assay; format: functional, Homo sapiens; settings: Compound concentration 10 uM; time 3 day
HT = assay: HT cell line Proliferation assay; format: functional, Homo sapiens; settings: Compound concentration 10 uM; time 3 day
MOLM-13 = assay: MOLM-13 cell line Proliferation assay; format: functional, Homo sapiens; settings: Compound concentration 10 uM; time 3 day
SKM-1 = assay: SKM-1 cell line Proliferation assay; format: functional, Homo sapiens; settings: Compound concentration 10 uM; time 3 day
EOL1 = assay: EOL-1 cell line Proliferation assay; format: functional, Homo sapiens; settings: Compound concentration 10 uM; time 3 day
[14] = molecular target: T1, 5-hydroxytryptamine receptor 3A (Homo sapiens) (UniProt P46098); settings: Compound concentration 10.0 uM
T1 sequence (whole entry): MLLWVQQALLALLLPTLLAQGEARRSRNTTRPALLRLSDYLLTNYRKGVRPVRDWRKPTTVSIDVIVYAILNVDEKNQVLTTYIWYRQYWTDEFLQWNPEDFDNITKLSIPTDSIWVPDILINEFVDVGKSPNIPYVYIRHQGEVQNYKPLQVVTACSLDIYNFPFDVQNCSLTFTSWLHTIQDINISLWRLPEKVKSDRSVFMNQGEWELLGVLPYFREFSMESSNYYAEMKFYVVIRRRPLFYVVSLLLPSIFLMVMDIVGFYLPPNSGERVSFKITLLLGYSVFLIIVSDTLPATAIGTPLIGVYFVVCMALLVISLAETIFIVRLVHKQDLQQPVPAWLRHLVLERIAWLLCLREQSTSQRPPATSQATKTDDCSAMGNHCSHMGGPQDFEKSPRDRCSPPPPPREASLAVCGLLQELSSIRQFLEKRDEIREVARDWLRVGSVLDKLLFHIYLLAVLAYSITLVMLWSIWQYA

[15] = molecular target: Delta-type opioid receptor (Homo sapiens) (UniProt P41143); settings: Compound concentration 10.0 uM
Sequence of Delta-type opioid receptor (Homo sapiens) (P41143 whole entry): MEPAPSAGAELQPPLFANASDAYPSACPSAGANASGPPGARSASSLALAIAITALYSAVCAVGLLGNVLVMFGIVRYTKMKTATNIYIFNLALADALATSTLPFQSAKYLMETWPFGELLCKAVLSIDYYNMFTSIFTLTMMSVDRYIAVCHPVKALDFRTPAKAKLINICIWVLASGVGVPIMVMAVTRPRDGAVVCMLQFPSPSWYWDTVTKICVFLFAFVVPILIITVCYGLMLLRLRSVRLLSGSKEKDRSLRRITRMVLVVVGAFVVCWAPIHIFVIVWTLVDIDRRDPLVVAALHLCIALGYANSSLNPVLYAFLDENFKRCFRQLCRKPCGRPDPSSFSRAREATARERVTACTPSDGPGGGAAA

Sequence of Prostaglandin G/H synthase 1 (Homo sapiens) (P23219 whole entry): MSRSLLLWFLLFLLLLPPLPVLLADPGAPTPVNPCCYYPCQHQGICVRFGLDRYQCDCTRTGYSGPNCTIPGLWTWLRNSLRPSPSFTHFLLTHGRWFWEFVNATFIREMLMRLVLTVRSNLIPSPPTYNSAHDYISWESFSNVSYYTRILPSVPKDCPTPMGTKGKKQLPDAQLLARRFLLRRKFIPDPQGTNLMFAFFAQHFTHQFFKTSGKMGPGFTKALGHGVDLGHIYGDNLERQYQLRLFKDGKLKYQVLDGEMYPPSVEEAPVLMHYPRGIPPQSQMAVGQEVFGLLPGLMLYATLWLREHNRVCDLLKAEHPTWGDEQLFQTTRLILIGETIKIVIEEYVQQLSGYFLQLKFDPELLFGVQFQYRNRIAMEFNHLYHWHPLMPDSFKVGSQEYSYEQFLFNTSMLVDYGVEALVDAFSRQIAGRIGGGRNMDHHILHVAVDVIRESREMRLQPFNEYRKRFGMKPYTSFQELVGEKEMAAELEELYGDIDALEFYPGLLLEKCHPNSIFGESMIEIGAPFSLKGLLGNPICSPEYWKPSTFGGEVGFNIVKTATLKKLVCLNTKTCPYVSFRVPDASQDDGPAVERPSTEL
Sequence of Adenosine receptor A2b (Homo sapiens) (P29275 whole entry): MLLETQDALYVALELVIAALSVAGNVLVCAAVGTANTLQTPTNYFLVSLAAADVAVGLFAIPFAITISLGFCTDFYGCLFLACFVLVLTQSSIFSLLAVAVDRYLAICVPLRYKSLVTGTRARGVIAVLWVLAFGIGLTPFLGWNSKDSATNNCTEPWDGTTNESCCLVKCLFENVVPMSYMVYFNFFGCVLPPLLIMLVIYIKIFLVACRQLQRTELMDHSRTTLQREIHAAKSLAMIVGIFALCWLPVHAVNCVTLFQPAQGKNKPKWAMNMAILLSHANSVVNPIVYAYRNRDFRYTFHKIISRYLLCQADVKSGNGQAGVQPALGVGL

## CNC(=O)Nc1ccc2c(c1)[C@@]1(CC2)OC(=O)N(CC(=O)N(Cc2ccc(F)cc2)[C@@H](C)C(F)(F)F)C1=O [A-486]
[1]
  inhibition: 1%
[2]
  inhibition: -5%
[3]
  residual activity: 89%
[4]
  residual activity: 96%
[5]
  residual activity: 93%
[6]
  residual activity: 98%
[7]
  residual activity: 98%

## CNC(=O)Nc1ccc2c(c1)CC[C@@]21OC(=O)N(CC(=O)N(Cc2ccc(F)cc2)[C@@H](C)C(F)(F)F)C1=O [A-485]
[8]
  inhibition: 72%
[9]
  inhibition: 40%
[10]
  inhibition: 9%
[11]
  inhibition: 11%
[12]
  inhibition: 1%
[13]
  inhibition: -1.9%
NCI-H23
  Cell Proliferation EC50: 1791 nM
NCI-H1373
  Cell Proliferation EC50: 2341 nM
NCI-H1693
  Cell Proliferation EC50: 2367 nM
NCI-H727
  Cell Proliferation EC50: 6632 nM
NCI-H441
  Cell Proliferation EC50: >10000 nM
NCI-H596
  Cell Proliferation EC50: >10000 nM
DU-145
  Cell Proliferation EC50: >10000 nM
SK-MEL-1
  Cell Proliferation EC50: 571 nM
WM 266-4
  Cell Proliferation EC50: 1914 nM
COLO-679
  Cell Proliferation EC50: 2258 nM
Hs 294T
  Cell Proliferation EC50: 9000 nM
NCI-H209
  Cell Proliferation EC50: 400 nM
NCI-H1930
  Cell Proliferation EC50: >10000 nM
NCI-H2081
  Cell Proliferation EC50: >10000 nM
COR-L47
  Cell Proliferation EC50: >10000 nM
BT-20
  Cell Proliferation EC50: 336.5 nM
HCC1806
  Cell Proliferation EC50: 2951.2 nM
MDA-MB-157
  Cell Proliferation EC50: 4592 nM
HCC1937
  Cell Proliferation EC50: >10000 nM
HCC1395
  Cell Proliferation EC50: >10000 nM
MDA-MB-231
  Cell Proliferation EC50: >10000 nM
4T1
  Cell Proliferation EC50: >10000 nM
HCC1187
  Cell Proliferation EC50: >10000 nM
RPMI-8226
  Cell Proliferation EC50: 164 nM
MM1.S
  Cell Proliferation EC50: 181 nM
L-363
  Cell Proliferation EC50: 509 nM
OPM-2
  Cell Proliferation EC50: 620 nM
AMO1
  Cell Proliferation EC50: 1093 nM
Karpas-1106P
  Cell Proliferation EC50: 405.1 nM
Daudi
  Cell Proliferation EC50: 434.6 nM
NU-DUL-1
  Cell Proliferation EC50: 478.1 nM
Toledo
  Cell Proliferation EC50: 487.5 nM
NU-DHL-1
  Cell Proliferation EC50: 530.1 nM
Mino
  Cell Proliferation EC50: 532.2 nM
U-2973
  Cell Proliferation EC50: 662.2 nM
DB
  Cell Proliferation EC50: 772.7 nM
RL
  Cell Proliferation EC50: 1047 nM
GA-10
  Cell Proliferation EC50: 1059 nM
Rec1
  Cell Proliferation EC50: >10000 nM
Farage
  Cell Proliferation EC50: >10000 nM
HT
  Cell Proliferation EC50: >10000 nM
MOLM-13
  Cell Proliferation EC50: 350 nM
SKM-1
  Cell Proliferation EC50: 1340 nM
EOL1
  Cell Proliferation EC50: >10000 nM
[14]
  inhibition: -8.97%
[15]
  inhibition: -2.53%
